Laboratory results: paper PMC10353390, “Biological and Structural Analyses of New Potent Allosteric Inhibitors of HIV-1 Integrase” (Antimicrobial Agents and Chemotherapy, 2023)
Where two headings read alike, the source gives them in different places.

Tests used:
[1] = Cytotoxicity assay in MT4 cells; type: cell-based; conditions: human, MT4 cells (proliferating human T-cell line), CellTiter-Glo
Description: Growth inhibition was monitored in a proliferating human T-cell line (MT4) with different concentrations of compounds, using the CellTiter-Glo luminescent reagent (Promega), as previously described ([12]).

[2] = test system: HIV-1 strains resistant to INSTIs, NRTIs, NNRTIs or PIs; type: cell-based
In short: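 Cell viability (CellTiter-Glo luminescence) served as read-out in MT4 cells at 10^6/mL, infected 2 h at MOI 0.001 in presence of graded compound concentrations. Viruses: resistance-mutation recombinants in NL4-3 backbone plus resistant clinical isolates.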

[3] = molecular target: CCD of HIV-1 IN and IBD of LEDGF/p75 (Human immunodeficiency virus type 1 group M subtype B, UniProt P12497); assay: biochemical
HIV-1 IN = molecular target: T1, HIV-1 IN (Human immunodeficiency virus type 1 group M subtype B, UniProt P12497); assay: HTRF IN multimerization assay; type: biochemical; conditions: mean ± SD
T1 construct: made in house
Description: A key property of INLAIs is the ability to promote HIV-1 IN homo-multimerization ([39][–][42]). […] The maximal signal (plateau) in our IN aggregation assay corresponds to the highest HTRF signal increase under saturating INLAI concentration, relative to baseline level. Thus, MUT916, MUT884, MUT871, and MUT872 increased HIV-1 IN aggregation 3.7 to 4.4-fold, while BDM-2, BI-224436, and S-I-82 did so 5 to 6-fold (Table 1).

[4] = test system: lab-adapted and clinical HIV-1 isolates; assay: Infection assays in primary T CD4+ lymphocytes; type: cell-based; conditions: Human immunodeficiency virus 1, Lymphocyte
[5] = test system: NL4-3 HIV-1 with INLAI-selected IN single point mutations; type: cell-based
[6] = test system: VSV-G-pseudotyped NL4-3Δenv-luc; assay: microbe, parasite or virus in culture; type: cell-based, HIV-1
[7] = test system: primary HIV-1 isolates with polymorphisms at IN positions 124 and 125; assay: Multiple-round infection of MT4 cells with primary HIV-1 isolates polymorphic at IN positions 124 and 125; type: cell-based; conditions: primary isolate
Experimental: Next, we evaluated the potency of the BDM-2 series of INLAIs against several primary HIV-1 isolates with polymorphisms at IN positions 124 and 125.
(§1) MT4 cells growing exponentially at the density of 10^6/mL were infected with HIV-1 strain NL4-3 at a multiplicity of infection (MOI) of 0.001 for 2 h in the presence of different concentrations of compounds, and the CellTiter-Glo luminescent reagent (Promega) was used to quantify cell viability as described previously ([12]).

[8] = molecular target: HIV-1 IN-LEDGF/p75 interaction (Human immunodeficiency virus type 1 group M subtype B, UniProt P12497); assay: biochemical
NL4-3 HIV-1 strain = assay: Multiple-round infection assay in MT4 cells, NL4-3; type: cell-based; conditions: MT4 cells
HXB2 HIV-1 strain = assay: Multiple-round infection assay in MT4 cells, HXB2; type: cell-based; conditions: Human immunodeficiency virus 1, HXB2; multiple-round infection, MT4 cells; mean ± SD, n > 5; read-out: EC50 HXB2
In short: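 Antiviral read-out was CellTiter-Glo luminescent viability of exponentially growing MT4 cells (10^6/mL). Cells were exposed to HIV-1 for 2 h at an MOI of 0.001 while compound was present at varying concentrations.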

[9] = test system: recombinant NL4-3 viruses with polymorphisms at IN positions 124 and 125; assay: Multiple-round infection of MT4 cells with recombinant NL4-3 viruses polymorphic at IN positions 124 and 125; type: cell-based, HIV-1
Description: Located on the HIV-1 IN CCD dimerization interface, the principal INLAI binding pocket overlaps with a hot spot of amino acid sequence polymorphism involving IN residues 124 and 125 ([16]). To test if the new INLAIs maintained antiviral activity against major polymorphisms, we introduced all major combinations of residues found in circulating HIV-1 strains at positions 124 and 125 into NL4-3 HIV-1 molecular clone. In total, we evaluated 15 such combinations that collectively covered 98% of all HIV-1 clade polymorphisms involving these positions ([48]). To gauge effects on the antiviral activity, we calculated the EC50 fold change (FC) relative to wild type NL4-3 HIV-1 strain that features Thr124 and Thr125 (TT; specific polymorphisms are referred to by a single letter amino acid code).
as §1

[10] = INSTI-resistant, NL4-3 background

## Cc1ccc(C2CC2)c(-c2ccc3c(c2C)CCCO3)c1[C@H](OC1CC1)C(=O)O [MUT884]
[1]
  CC50: 78000 ± 12000 nM
[2]; [10]
  Fold change in EC50 relative to NL4-3, E92Q: 1
  Fold change in EC50 relative to NL4-3, G140S: 1
  Fold change in EC50 relative to NL4-3, G140S/Q148H: 1
  Fold change in EC50 relative to NL4-3, N155H: 1
  Fold change in EC50 relative to NL4-3, Q148H: 1
  Fold change in EC50 relative to NL4-3, Y143R: 0.5
[2]; NRTI-resistant clone
  Fold change in EC50 relative to NL4-3, NLAY351717: 1
[2]; NRTI/NNRTI-resistant clone
  Fold change in EC50 relative to NL4-3, NLAY351753: 1
[2]; NRTI/NNRTIs group, NL4-3 background
  Fold change in EC50 relative to NL4-3, K103N/Y181C: 1
[2]; PI-resistant virus
  Fold change in EC50 relative to NL4-3, ARP-4595: 1
  Fold change in EC50 relative to NL4-3, ARP-4596: 1
  Fold change in EC50 relative to NL4-3, ARP-11801: 3
  Fold change in EC50 relative to NL4-3, ARP-11803: 2
  Fold change in EC50 relative to NL4-3, ARP-11807: 1
  Fold change in EC50 relative to NL4-3, ARP-11808: 2
[3]
  IC50: 82 ± 21 nM
HIV-1 IN; concentration for 50% maximum activation of multimerization
  AC50: 22 ± 4 nM
HIV-1 IN; maximum multimerization reached versus baseline
  IN multimerization Plateau: 400 ± 71%
[4]; read-out: EC50 33913N (B)
  EC50: 5.8 ± 3.2 nM
[4]; read-out: EC50 HXB2 (B)
  EC50: 10 ± 6 nM
[4]; read-out: EC50 KER2008 (A)
  EC50: 19 ± 3 nM
[4]; read-out: EC50 NL4-3 (B)
  EC50: 15 ± 4 nM
[4]; read-out: EC50 NP1525 (CRF01_AE)
  EC50: 12 ± 3 nM
[4]; read-out: EC50 NP1538 (B)
  EC50: 41 ± 2 nM
[5]
  EC50 fold change compared to wild type NL4-3, A128T: 5
  EC50 fold change compared to wild type NL4-3, H171Q: 1
  EC50 fold change compared to wild type NL4-3, N222K: 3
  EC50 fold change compared to wild type NL4-3, T174I: 12
  EC50 fold change compared to wild type NL4-3, Y99H: 2
[6]
  EC50 ratio (single/multiple-round infection): 260
[6]; Human immunodeficiency virus 1, NL43, MT4, read-out: EC50 in single-round infection
  EC50: 3900 ± 800 nM
[7]; IN 124/125 AA
  Fold change in EC50 relative to parental NL4-3, CAM2BBY (CRF02): 1
  Fold change in EC50 relative to parental NL4-3, E0836M4 (D): 1
  Fold change in EC50 relative to parental NL4-3, KER2008 (A): 0.5
  Fold change in EC50 relative to parental NL4-3, NP1525 (CRF01): 1
  Fold change in EC50 relative to parental NL4-3, NP1695 (CRF02): 2
  Fold change in EC50 relative to parental NL4-3, TZA125 (C): 0.3
[7]; IN 124/125 GA
  Fold change in EC50 relative to parental NL4-3, KSM4030 (A): 1
  Fold change in EC50 relative to parental NL4-3, vGA (C): 5
[7]; IN 124/125 NA
  Fold change in EC50 relative to parental NL4-3, 99ET14 (C): 1
  Fold change in EC50 relative to parental NL4-3, NP1538 (B): 3
  Fold change in EC50 relative to parental NL4-3, vNA_1 (B): 3
  Fold change in EC50 relative to parental NL4-3, vNA_2 (CRF02): 4
[7]; IN 124/125 NV
  Fold change in EC50 relative to parental NL4-3, vNV (B): 2
[7]; IN 124/125 SA
  Fold change in EC50 relative to parental NL4-3, vSA_1 (B): 2
  Fold change in EC50 relative to parental NL4-3, vSA_2 (CRF02): 2
[7]; IN 124/125 TA
  Fold change in EC50 relative to parental NL4-3, vTA_1 (B): 1
  Fold change in EC50 relative to parental NL4-3, vTA_2 (CRF02): 2
[8]
  IC50: 62 ± 9 nM
NL4-3 HIV-1 strain; Human immunodeficiency virus 1, NL43, multiple-round infection, from dose response curves, read-out: EC90 NL4-3
  EC90: 23 ± 13 nM
NL4-3 HIV-1 strain; Human immunodeficiency virus 1, NL43, multiple-round infection, mean ± SD, n > 5, read-out: EC50 NL4-3
  EC50: 15 ± 5 nM
NL4-3 HIV-1 strain
  Selectivity index CC50/EC50 NL4-3: 5,200
HXB2 HIV-1 strain
  EC50: 6.3 ± 1.1 nM
[9]; recombinant NL4-3, IN 124/125 AA
  Fold change in EC50 relative to parental NL4-3, AA: 0.4
[9]; recombinant NL4-3, IN 124/125 AM
  Fold change in EC50 relative to parental NL4-3, AM: 0.2
[9]; recombinant NL4-3, IN 124/125 AT
  Fold change in EC50 relative to parental NL4-3, AT: 1
[9]; recombinant NL4-3, IN 124/125 AV
  Fold change in EC50 relative to parental NL4-3, AV: 0.5
[9]; recombinant NL4-3, IN 124/125 GA
  Fold change in EC50 relative to parental NL4-3, GA: 1
[9]; recombinant NL4-3, IN 124/125 GT
  Fold change in EC50 relative to parental NL4-3, GT: 2
[9]; recombinant NL4-3, IN 124/125 NA
  Fold change in EC50 relative to parental NL4-3, NA: 2
[9]; recombinant NL4-3, IN 124/125 NT
  Fold change in EC50 relative to parental NL4-3, NT: 1
[9]; recombinant NL4-3, IN 124/125 NV
  Fold change in EC50 relative to parental NL4-3, NV: 1
[9]; recombinant NL4-3, IN 124/125 SA
  Fold change in EC50 relative to parental NL4-3, SA: 1
[9]; recombinant NL4-3, IN 124/125 ST
  Fold change in EC50 relative to parental NL4-3, ST: 1
[9]; recombinant NL4-3, IN 124/125 TA
  Fold change in EC50 relative to parental NL4-3, TA: 1
[9]; recombinant NL4-3, IN 124/125 TM
  Fold change in EC50 relative to parental NL4-3, TM: 0.2
[9]; recombinant NL4-3, IN 124/125 TV
  Fold change in EC50 relative to parental NL4-3, TV: 1
